By IC50 is commonly meant the midpoint of a concentration-inhibition curve.

Read-outs that look alike come from different tables or passages of the source. Where only a bound is given, the exact number is not on record here.

The test system of experiment [1] is Aβ40 in conditioned medium of cells stably expressing Amyloid Precursor Protein (APP). In words: In vitro BACE-1 cell-based assay (Aβ40 sandwich ELISA). Conditions: read-out: IC50 IP (μM) BACE1 cell. In a few lines: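 Aβ40 in supernatants measured by time-resolved fluorescence sandwich ELISA, with pAb40 as capture and biotin-6E10 as detector antibody, each incubated at 4 °C.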
(An ELISA detects its analyte on a solid surface through an enzyme-linked reagent.)

Another experiment addresses Recombinant Cat D (Homo sapiens (Human), UniProt P07339). In words: In vitro enzymatic Cathepsin D (Cat D) FRET assay. Format: biochemical. To be noted: read-out: IC50 IP (μM) CatD. In a few lines:
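Recombinant Cat D expressed in CHO cells, assayed in 0.05 M citrate pH 3.5 with 5 mM CHAPS and 10% DMSO final. Reaction started with 20 nM FRET peptide substrate, incubated one hour, then stopped by Tris buffer to neutral pH; fluorescence read at ex 500/em 580 nm.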

The next experiment has as its target human recombinant BACE1 (Homo sapiens (Human), UniProt P56817). In words: In vitro enzymatic BACE1 FRET assay. Format: biochemical. Conditions: read-out: IC50 IP (μM) BACE1 enzyme. The method in brief: (§1)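 Reactions were initiated by adding 50 nM of a peptide carrying fluorophore and quencher on opposite sides of the cleavage site and ran for one hour. Tris buffer then brought the pH to neutrality, ending the reaction, and fluorescence was measured (488 nm excitation, 590 nm emission).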

The next experiment deals with human recombinant BACE2 (Homo sapiens (Human), UniProt Q9Y5Z0). In words: In vitro enzymatic BACE2 FRET assay. To be noted: read-out: IC50 IP (μM) BACE2 enzyme. Format: biochemical. In a few lines: as §1
Chain of human recombinant BACE2 (Q9Y5Z0 63-518): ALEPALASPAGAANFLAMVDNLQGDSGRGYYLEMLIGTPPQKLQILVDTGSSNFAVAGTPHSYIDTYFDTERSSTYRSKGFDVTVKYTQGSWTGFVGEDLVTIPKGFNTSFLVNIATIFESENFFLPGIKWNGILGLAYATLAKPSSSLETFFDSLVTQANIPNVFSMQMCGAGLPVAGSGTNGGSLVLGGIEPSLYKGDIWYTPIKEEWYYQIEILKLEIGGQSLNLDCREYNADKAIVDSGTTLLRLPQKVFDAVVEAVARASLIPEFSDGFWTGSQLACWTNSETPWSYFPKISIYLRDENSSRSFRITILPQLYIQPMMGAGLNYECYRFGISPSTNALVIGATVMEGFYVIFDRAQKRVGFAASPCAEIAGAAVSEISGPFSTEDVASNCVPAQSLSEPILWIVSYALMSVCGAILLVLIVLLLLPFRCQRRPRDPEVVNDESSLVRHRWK

Chain of Recombinant Cat D (P07339 65-412): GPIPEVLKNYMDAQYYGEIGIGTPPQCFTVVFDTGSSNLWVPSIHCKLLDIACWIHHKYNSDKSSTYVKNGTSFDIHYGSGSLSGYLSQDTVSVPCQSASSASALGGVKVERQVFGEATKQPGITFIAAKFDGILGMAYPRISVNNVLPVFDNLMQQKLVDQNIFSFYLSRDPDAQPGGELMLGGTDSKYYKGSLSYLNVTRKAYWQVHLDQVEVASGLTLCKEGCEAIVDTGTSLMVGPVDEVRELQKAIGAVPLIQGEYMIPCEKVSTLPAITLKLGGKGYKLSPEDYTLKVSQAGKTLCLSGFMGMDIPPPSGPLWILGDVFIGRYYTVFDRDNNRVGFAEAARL
Chain of human recombinant BACE1 (P56817 46-501): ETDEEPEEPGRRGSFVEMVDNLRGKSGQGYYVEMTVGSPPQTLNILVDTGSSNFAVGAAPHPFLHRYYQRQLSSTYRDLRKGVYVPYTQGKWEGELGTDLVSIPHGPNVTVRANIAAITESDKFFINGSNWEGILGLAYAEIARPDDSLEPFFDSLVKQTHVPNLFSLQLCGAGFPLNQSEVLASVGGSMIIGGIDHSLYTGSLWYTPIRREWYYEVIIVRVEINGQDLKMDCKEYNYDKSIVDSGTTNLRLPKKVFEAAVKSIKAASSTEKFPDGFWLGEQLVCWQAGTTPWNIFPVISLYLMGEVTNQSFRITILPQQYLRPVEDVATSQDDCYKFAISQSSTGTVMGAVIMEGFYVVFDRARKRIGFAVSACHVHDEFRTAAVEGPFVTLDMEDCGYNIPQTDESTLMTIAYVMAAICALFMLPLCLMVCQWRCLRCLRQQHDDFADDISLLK

Consider `C#CCOc1ccc(C(=O)Nc2cc(F)c(F)c([C@@]3(C)N=C(N)S[C@@]4(CO)C[C@H]43)c2)nc1` [Example 71, N-(3-((1S,5S,6S)-3-amino-1-(hydroxymethyl)-5-methyl-2-thia-4-azabicyclo[4.1.0]hept-3-en-5-yl)-4,5-difluorophenyl)-5-(2-propyn-1-yloxy)-2-pyridinecarboxamide], for which the half-inhibitory concentration (IC50) was determined as 0.00156 µM in experiment [1] (BACE1 cell-based assay), 329 µM on Recombinant Cat D (Cathepsin D FRET enzyme assay), 0.00047 µM at human recombinant BACE1 (BACE1 FRET enzyme assay) and 0.0375 µM at human recombinant BACE2 (BACE2 FRET enzyme assay).
For `C#CCOc1cnc(C(=O)Nc2cc(F)c(F)c([C@@]3(C)N=C(N)S[C@H]4C[C@H]43)c2)c(C)n1` [Example 77, N-(3-((1S,5S,6S)-3-amino-5-methyl-2-thia-4-azabicyclo[4.1.0]hept-3-en-5-yl)-4,5-difluorophenyl)-3-methyl-5-(2-propyn-1-yloxy)-2-pyrazinecarboxamide] the same measures were 0.0217 µM, 949 µM, 0.0047 µM and 0.0461 µM.
In the case of `COC[C@]12C[C@H]1[C@@](C)(c1cc(NC(=O)c3ncc(OCc4ncco4)nc3C)cc(F)c1F)N=C(N)S2` [Example 863, N-(3-((1S,5S,6S)-3-amino-1-(methoxymethyl)-5-methyl-2-thia-4-azabicyclo[4.1.0]hept-3-en-5-yl)-4,5-difluorophenyl)-3-methyl-5-(1,3-oxazol-2-ylmethoxy)-2-pyrazinecarboxamide], the IC50 in experiment [1] came to 0.00635 µM; on Recombinant Cat D it was 467 µM; at human recombinant BACE1, 0.00228 µM; on human recombinant BACE2 it was 0.0249 µM.
Turning to `C#CCOc1cnc2c(Nc3cc(F)c(F)c([C@@]4(C)N=C(N)S[C@@]5(COC)C[C@H]54)c3)ncnc2c1` [Example 943, N-(3-((1S,5S,6S)-3-amino-1-(methoxymethyl)-5-methyl-2-thia-4-azabicyclo[4.1.0]hept-3-en-5-yl)-4,5-difluorophenyl)-7-(2-propyn-1-yloxy)pyrido[3,2-d]pyrimidin-4-amine], the IC50 in experiment [1] was determined as 0.00593 µM; on Recombinant Cat D, 571 µM; at human recombinant BACE1, 0.00223 µM; at human recombinant BACE2, 0.101 µM.
For `CC(=O)[C@]12C[C@H]1[C@@](C)(c1cc(Nc3ncnc4cc(C#N)cnc34)cc(F)c1F)N=C(N)S2` [Example 904, 4-((3-((1S,5S,6S)-1-acetyl-3-amino-5-methyl-2-thia-4-azabicyclo[4.1.0]hept-3-en-5-yl)-4,5-difluorophenyl)amino)pyrido[3,2-d]pyrimidine-7-carbonitrile] the same measures were 0.0132 µM, 380 µM, 0.0141 µM and 0.0355 µM.
For `COc1ncc(NC(=O)c2ccc(Cl)cn2)cc1[C@@]1(C)N=C(N)S[C@@]2(CF)C[C@H]21` [Example 624, N-(5-((1S,5S,6S)-3-amino-1-(fluoromethyl)-5-methyl-2-thia-4-azabicyclo[4.1.0]hept-3-en-5-yl)-6-methoxy-3-pyridinyl)-5-chloro-2-pyridinecarboxamide] the same measures were 0.0435 µM, above 400 µM, 0.0298 µM and 0.00394 µM.
Take `COC[C@]12C[C@H]1[C@@](C)(c1cc(NC(=O)c3cnc(OCC(C)C)cn3)cc(F)c1F)N=C(N)S2` [Example 1028, N-(3-((1S,5S,6S)-3-amino-1-(methoxymethyl)-5-methyl-2-thia-4-azabicyclo[4.1.0]hept-3-en-5-yl)-4,5-difluorophenyl)-5-(2-methylpropoxy)-2-pyrazinecarboxamide]: the IC50 in experiment [1] turned out to be 0.0293 µM; at Recombinant Cat D it was 135 µM; at human recombinant BACE1 it was 0.00195 µM; on human recombinant BACE2, 0.226 µM.
For `C[C@]1(c2cc(Nc3ncnc4cc(OCc5ncco5)cnc34)cc(F)c2F)N=C(N)S[C@@]2(C(=O)N3CCCC3)C[C@H]21` [Example 936, N-(3-((1S,5S,6S)-3-amino-5-methyl-1-(1-pyrrolidinylcarbonyl)-2-thia-4-azabicyclo[4.1.0]hept-3-en-5-yl)-4,5-difluorophenyl)-7-(1,3-oxazol-2-ylmethoxy)pyrido[3,2-d]pyrimidin-4-amine] the same measures were 0.000847 µM, 115 µM, 0.00385 µM and 0.0182 µM.
With `NC1=N[C@](CF)(c2cc(Nc3nncc4cc(Cl)cnc34)ccc2F)[C@@H]2C[C@@H]2S1` [Example 754, (1S,5S,6S)-5-(5-((3-chloropyrido[2,3-d]pyridazin-8-yl)amino)-2-fluorophenyl)-5-(fluoromethyl)-2-thia-4-azabicyclo[4.1.0]hept-3-en-3-amine], the 50% inhibitory concentration (IC50) was determined as 0.0781 µM in experiment [1], 844 µM on Recombinant Cat D, 0.0454 µM at human recombinant BACE1 and 0.00588 µM on human recombinant BACE2.
For `CC#CCOc1cnc2c(Nc3ccc(F)c([C@@]4(CF)N=C(N)S[C@@]5(CF)C[C@H]54)c3)nccc2n1` [Example 865, N-(3-((1S,5S,6S)-3-amino-1,5-bis(fluoromethyl)-2-thia-4-azabicyclo[4.1.0]hept-3-en-5-yl)-4-fluorophenyl)-2-(2-butyn-1-yloxy)pyrido[3,4-b]pyrazin-5-amine] the same measures were 0.00301 µM, 325 µM, 0.000236 µM and 0.0123 µM.
For `C[C@]1(c2cc(NC(=O)c3ccc(Cl)cn3)ccc2F)N=C(N)S[C@@]2(C#N)C[C@H]21` [Example 929, N-(3-((1S,5S,6S)-3-amino-1-cyano-5-methyl-2-thia-4-azabicyclo[4.1.0]hept-3-en-5-yl)-4-fluorophenyl)-5-chloro 2-pyridinecarboxamide] the same measures were 0.00363 µM, above 400 µM, 0.000567 µM and below 0.00203 µM.
For `C#CCOc1cnc2c(Nc3cnc(F)c([C@@]4(C)N=C(N)S[C@H]5C[C@H]54)c3)nccc2n1` [Example 639, (1S,5S,6S)-5-(2-fluoro-5-((2-(prop-2-yn-1-yloxy)pyrido[3,4-b]pyrazin-5-yl)amino)pyridin-3-yl)-5-methyl-2-thia-4-azabicyclo[4.1.0]hept-3-en-3-amine] the same measures were 0.00213 µM, 381 µM, 0.00157 µM and 0.0401 µM.
Regarding `C#C[C@H](C)Oc1cnc(C(=O)Nc2ccc(F)c([C@@]3(C)N=C(N)S[C@@]4(CF)C[C@H]43)c2)c(C)c1` [Example 651, N-(3-((1S,5S,6S)-3-amino-1-(fluoromethyl)-5-methyl-2-thia-4-azabicyclo[4.1.0]hept-3-en-5-yl)-4-fluorophenyl)-3-methyl-5-(((1S)-1-methyl-2-propyn-1-yl)oxy)-2-pyridinecarboxamide], the IC50 was 0.139 µM in experiment [1], 1030 µM on Recombinant Cat D, 0.0589 µM at human recombinant BACE1 and 0.397 µM at human recombinant BACE2.
For `Cc1cnnn1C[C@]12C[C@H]1[C@@](CF)(c1cc(NC(=O)c3ccc(Cl)cn3)ccc1F)N=C(N)S2` [Example 725, N-(3-((1S,5S,6S)-3-amino-5-(fluoromethyl)-1-((5-methyl-1H-1,2,3-triazol-1-yl)methyl)-2-thia-4-azabicyclo[4.1.0]hept-3-en-5-yl)-4-fluorophenyl)-5-chloro-2-pyridinecarboxamide], the IC50 in experiment [1] was 0.0148 µM; on Recombinant Cat D, 1160 µM; on human recombinant BACE1, 0.00565 µM; on human recombinant BACE2, 0.00251 µM.
In the case of `C#CCOc1cnc2c(Nc3cc(F)c(F)c([C@@]4(C)N=C(N)S[C@H]5C[C@H]54)c3)nccc2c1` [Example 32, N-(3-((1S,5S,6S)-3-amino-5-methyl-2-thia-4-azabicyclo[4.1.0]hept-3-en-5-yl)-4,5-difluorophenyl)-3-(2-propyn-1-yloxy)-1,7-naphthyridin-8-amine], the IC50 in experiment [1] (BACE1 cell-based assay) stood at 0.0836 µM; at Recombinant Cat D (Cathepsin D FRET enzyme assay), 138 µM; on human recombinant BACE1 (BACE1 FRET enzyme assay) it was 0.0212 µM; on human recombinant BACE2 (BACE2 FRET enzyme assay), 0.304 µM.
`COC[C@]12C[C@H]1[C@@](C)(c1cc(NC(=O)c3cnc(OCC4COC4)cn3)cc(F)c1F)N=C(N)S2` [Example 1022, N-(3-((1S,5S,6S)-3-amino-1-(methoxymethyl)-5-methyl-2-thia-4-azabicyclo[4.1.0]hept-3-en-5-yl)-4,5-difluorophenyl)-5-(3-oxetanylmethoxy)-2-pyrazinecarboxamide]: the IC50 was 0.0331 µM in experiment [1], above 400 µM at Recombinant Cat D, 0.00572 µM on human recombinant BACE1 and 0.579 µM at human recombinant BACE2.
For `C#CCOc1cnc2c(Nc3cnc(F)c([C@@]4(C)N=C(N)S[C@@]5(COC)C[C@H]54)c3)nccc2n1` [Example 848, N-(5-((1S,5S,6S)-3-amino-1-(methoxymethyl)-5-methyl-2-thia-4-azabicyclo[4.1.0]hept-3-en-5-yl)-6-fluoro-3-pyridinyl)-2-(2-propyn-1-yloxy)pyrido[3,4-b]pyrazin-5-amine] the same measures were 0.00134 µM, 773 µM, 0.00136 µM and 0.0335 µM.

Source of the values: patent US20160046618A1, “Cyclopropyl Fused Thiazin-2-Amine Compounds as Beta-Secretase Inhibitors and Methods of Use” (AMGEN INC., priority 2014, published 2016).
